According to patent publication US20080299123A1, “TREATMENT OF CHEMOTHERAPY- OR RADIOTHERAPY-RESISTANT TUMORS” (Deutsches Krebsforschungszentrum Stiftung des offentlichen …, priority 2006, published 2008):

System: cathepsin B and CRABPII transcription
Test: L1-dependent gene regulation by qPCR in HEK293-hL1wt cells
Assay type: cell-based, human
Settings: preincubation 96 h
Protocol: (A) Analysis of L1-32 cleavage by γ-secretase. Cells were treated for 48 h at 37° C. with presenilin inhibitor IX (DAPT) or for control with DMSO. Isolated membranes were incubated for 2 h at 37° C. and then separated into pellet or supernatant (SN) fractions by ultracentrifugation. Lanes 1 to 2 show cells treated with DMSO (vehicle). Lanes 3 and 4 show cells preincubated with DAPT. (B) SKOV3ip cells were treated with DAPT either in the presence or absence of the metalloprotease inhibitor TAPI-0 for 24 hr. Cells were lysed in BOG lysis buffer and analyzed by Western blot analysis. The cell supernatant was analyzed for soluble L1 using mAb L1-11A and the cell lysate was examined for L1-32 using peytL1. (C) HEK293 or HEK293-hL1wt cells were treated with DMSO, DAPT, TAPI-0 or both inhibitors for 96 h. mRNA was transcribed to cDNA and analyzed by qPCR for the genes CRABPII and cathepsin B. (D) Analysis of ERK phosphorylation in SKOV3ip cells after treatment with the indicated compounds.
We next investigated whether L1-mediated gene regulation was dependent on L1-processing, by carrying out inhibition experiments. […]
mRNA was isolated using the Quiagen RNAeasy mini kit (Quiagen Hilden, Germany). […] After exposing of the hybridized membranes, the PhosphorImager screens were scanned (Fuji FLA-3000, 100 μm resolution, Fuji BAS-reader software). […]

CC(C)C[C@H](CC(=O)NO)C(=O)N[C@@H](Cc1ccc2ccccc2c1)C(=O)N[C@@H](C)C(N)=O [TAPI-0]
L1-dependent regulation of transcription for cathepsin B and CRABPII: blocked
